From patent publication US8148424B2, “Tocopherols, tocotrienols, other chroman and side chain derivatives and uses thereof” (Research Development Foundation, priority 1998, dated 2012)
Read-outs that look alike come from different tables or passages of the source. One block for each molecule: values may come before it.

How the values were obtained:
MDA-MB-435 = experiment: Bioassay for apoptosis (apoptotic EC50); format: cell-based, human
Description: (§1) Cells were cultured at 1.5×10^5 cells/well in 12 well plates. Cells were allowed to adhere overnight, then incubated with novel test compounds at 0.01, 0.1, 1, 5, 10 & 20 μg/mL for 1, 2 and 3 days. After treatment, cells (floating+trypsin released adherent cells) were pelleted, washed and stained with 2 μg/ml DAPI (4′,6-diamidine-2′-phenylindole dihydrochloride) in 100% methanol for 15 minutes at 37° C. and/or 3′-OH ends resulting from DNA fragmentation were detected with the TUNEL (terminal deoxynucleotidyl transferase-mediated dUTP-X 3′ nick end-labeling) technique, and then viewed using a Zeiss ICM 405 microscope. Cells whose nucleus contained clearly condensed or fragmented chromatin or stained for fragmented DNA in the TUNEL assay were scored as apoptotic. Data are presented as percent cells undergoing apoptosis.

MDA-MB-435 cells [1] = experiment: DNA synthesis arrest by 3H-uptake (Example 8); format: cell-based, human; details: for EC50: MDA-MB-435, 2% serum, 3H-uptake at one day treatment
Description: (§2) MDA-MB-435 and MCF-7 cells at 1.5×10^5/well in 12 well plates for apoptosis and 1.5×10^4/well in 96 well plates for DNA synthesis arrest were incubated overnight in culture media and treated with α-tocopherol, α-tocotrinel, compound 1, 6-0-carboxymethyl alpha-tocotrienol (6-0-CM-α-T, 44), and vitamin E succinate (VES) at different concentrations in experimental media (2% serum for MDA-MB-435 cells and 5% serum for MCF-7 cells). DNA synthesis arrest was determined by ^3H-uptake at one day treatment and apoptosis was detected by DAPI staining at three day treatment. EC50 was calculated as the dosage of test compounds that gave 50% growth inhibition.

MCF-7 cells [2] = experiment: DNA synthesis arrest by 3H-uptake (Example 8); format: cell-based, human; details: 3H-uptake at one day treatment
Description: as §2

[3] = system: breast tumor cell line MDA-MB-435; experiment: Bioassay for DNA synthesis arrest, naturally occurring vitamin E compounds; format: cell-based, human; details: Table 1
Description: Table 1 provides tumor growth inhibitory properties of naturally occurring vitamin E compounds against the breast tumor cell line MDA-MB-435.
To assay DNA synthesis, all cells were used at 2.5×10^5/ml. Cells were treated with each of the compounds at concentrations of 0.01, 0.1, 1, 5, 10 and 20 μg/mL and 200 μl of each treatment group were plated in quadruplicate in a 96 well culture plate (Corning, Corning N.Y.). Experiments were done in duplicate, one plate used for viability testing and the other plate for examination of ^3H-TdR uptake to monitor DNA synthesis. Plates were cultured for 48 hours at 37° C., 5% CO2. Eight hours prior to the end of incubation, ^3H-TdR was added to one of the duplicate plates and incubation continued for 8 hours.
The cells were then harvested (trypsinization was required to harvest adherent cells), and isotope uptake was determined as counts per minute (cpm). For viability studies, at the end of the incubation, the cells were removed from the wells and viability checked by the Trypan Blue Exclusion method. Percent viability and percent DNA synthesis in comparison to untreated or vehicle treated cells of each treatment group were calculated.

MDA-MB-435 cells [4] = experiment: Apoptosis by DAPI staining (Example 8); format: cell-based, human; details: for EC50: MDA-MB-435, 2% serum, DAPI staining at three day treatment
Description: as §2

MCF-7 cells [5] = experiment: Apoptosis by DAPI staining (Example 8); format: cell-based, human; details: 5% serum, DAPI staining at three day treatment
Description: as §2

Myeloma = experiment: Bioassay for apoptosis (apoptotic EC50); format: cell-based, human; details: unit not given
Description: as §1

Raji = experiment: Bioassay for apoptosis (apoptotic EC50); format: cell-based, human; details: unit not given
Description: as §1

MCF-7 = experiment: Bioassay for apoptosis (apoptotic EC50); format: cell-based, human
Description: as §1

PC-3 = experiment: Bioassay for apoptosis (apoptotic EC50); format: cell-based, human; details: PC-3; unit not given; in µg/mL
Description: as §1

ME-180 = experiment: Bioassay for apoptosis (apoptotic EC50); format: cell-based, human
Description: as §1

Jurkat = experiment: Bioassay for apoptosis (apoptotic EC50); format: cell-based, human
Description: as §1

DLD-1 = experiment: Bioassay for apoptosis (apoptotic EC50); format: cell-based, human; details: unit not given, in µg/mL
Description: as §1

DU-145 = experiment: Bioassay for apoptosis (apoptotic EC50); format: cell-based, human; details: unit not given, in µg/mL
Description: as §1

MDA-MB-231 = experiment: Bioassay for apoptosis (apoptotic EC50); format: cell-based, human; details: MDA-MB-231; unit not given; in µg/mL
Description: as §1

HT-29 = experiment: Bioassay for apoptosis (apoptotic EC50); format: cell-based, human
Description: as §1

LnCaP = experiment: Bioassay for apoptosis (apoptotic EC50); format: cell-based, human; details: unit not given, in µg/mL
Description: as §1

Ramos = experiment: Bioassay for apoptosis (apoptotic EC50); format: cell-based, human; details: unit not given
Description: as §1

RL-95-2 = experiment: Bioassay for apoptosis (apoptotic EC50); format: cell-based, human; details: RL-95-2; unit not given; in µg/mL
Description: as §1

HL-60 = experiment: Bioassay for apoptosis (apoptotic EC50); format: cell-based, human
Description: as §1

A-549 = experiment: Bioassay for apoptosis (apoptotic EC50); format: cell-based, human
Description: as §1

C-170 = experiment: Bioassay for apoptosis (apoptotic EC50); format: cell-based, human; details: Homo sapiens, C170, C-170; unit inferred
Description: as §1

PREC = experiment: Bioassay for apoptosis (apoptotic EC50); format: cell-based; details: Homo sapiens, unit inferred
Description: as §1

[6] = MDA-MB-435, Table 1, read-out: EC50 for Apoptosis

EC50 (MDA-MB-435; [6]): > 400 µM
EC50 (MDA-MB-435 cells [1]): > 100 µM
EC50 (MCF-7 cells [2]; 5% serum): > 100 µM
EC50 [3]: > 400 µM
EC50 (MDA-MB-435 cells [4]): > 100 µM
EC50 (MCF-7 cells [5]): > 100 µM
Molecule: Cc1c(C)c2c(c(C)c1O)CC[C@@](C)(CCC[C@H](C)CCC[C@H](C)CCCC(C)C)O2 [α-tocopherol, RRR-α-tocopherol, reference compound]

apoptotic EC50 (Myeloma): 10-20
apoptotic EC50 (Raji): 10-20
apoptotic EC50 (MCF-7; MCF-7, unit not given, in µg/mL): 10-20
apoptotic EC50 (PC-3): 10-20
apoptotic EC50 (ME-180; ME-180, unit not given, in µg/mL): 10-20
apoptotic EC50 (Jurkat; unit not given, in µg/mL): 10-20
apoptotic EC50 (DLD-1): 10-20
apoptotic EC50 (DU-145): 10-20
apoptotic EC50 (MDA-MB-231): 5-10
apoptotic EC50 (HT-29; unit not given, in µg/mL): 5-10
apoptotic EC50 (LnCaP): 5-10
apoptotic EC50 (Ramos): 10-20
apoptotic EC50 (RL-95-2): 10-20
apoptotic EC50 (HL-60; HL-60, unit not given, in µg/mL): 10-20
apoptotic EC50 (A-549; unit not given, in µg/mL): 20-30
apoptotic EC50 (MDA-MB-435; MDA-MB-435, unit not given, in µg/mL): 5-10
EC50 (MDA-MB-435 cells [1]): 17 µM
EC50 (MCF-7 cells [2]; 5% serum): 22 µM
EC50 (MDA-MB-435 cells [4]): 36 µM
EC50 (MCF-7 cells [5]): 40 µM
Molecule: Cc1c(C)c2c(c(C)c1OC(=O)CCC(=O)O)CC[C@@](C)(CCC[C@H](C)CCC[C@H](C)CCCC(C)C)O2 [VES, RRR-α-tocopherol succinate, reference compound]

EC50 (MDA-MB-435; [6]): 50 µM
EC50 (MDA-MB-435 cells [1]): 29 µM
EC50 (MCF-7 cells [2]; 5% serum): 40 µM
EC50 [3]: 40 µM
EC50 (MDA-MB-435 cells [4]): 66 µM
EC50 (MCF-7 cells [5]): 40 µM
Molecule: α-tocotrienol [reference compound]

EC50 (MDA-MB-435 cells [1]; Homo sapiens): 2.5 µM
EC50 (MCF-7 cells [2]; Homo sapiens, MCF7, 5% serum): 5 µM
EC50 (MDA-MB-435 cells [4]; Homo sapiens, 72 h): 5.6 µM
EC50 (MCF-7 cells [5]; Homo sapiens, MCF7, 72 h): 10 µM
Molecule: CC(C)=CCC/C(C)=C/CC/C(C)=C/CC[C@]1(C)CCc2c(C)c(OCC(=O)O)c(C)c(C)c2O1 [Compound 44]
antitumor activity (DNA synthesis arrest) higher than alpha-tocotrienol (MDA-MB-435 cells [1]; MDA-MB-435 and MCF-7): 8-12 fold
antitumor activity (DNA synthesis arrest) higher than compound 1 (MDA-MB-435 cells [1]; MDA-MB-435 and MCF-7): 4-6 fold
antitumor activity (DNA synthesis arrest) higher than vitamin E succinate (MDA-MB-435 cells [1]; MDA-MB-435 and MCF-7): 4-7 fold
induction of apoptosis higher than alpha tocotrienol (MDA-MB-435 cells [4]; MDA-MB-435 and MCF-7): 4-12 fold
induction of apoptosis higher than compound 1 (MDA-MB-435 cells [4]; MDA-MB-435 and MCF-7): 4-5 fold
induction of apoptosis higher than vitamin E succinate (MDA-MB-435 cells [4]; MDA-MB-435 and MCF-7): 4-6 fold

EC50 (C-170): > 20 µg/mL
EC50 (MCF-7; Homo sapiens, MCF7, MCF-7, unit inferred): > 20 µg/mL
EC50 (ME-180; Homo sapiens, ME-180, ME-180, unit inferred): > 20 µg/mL
EC50 (Jurkat; Homo sapiens, unit inferred): > 20 µg/mL
EC50 (HT-29; Homo sapiens, unit inferred): > 20 µg/mL
EC50 (HL-60; Homo sapiens, HL-60, HL-60, unit inferred): > 20 µg/mL
EC50 (A-549; Homo sapiens, A549, unit inferred): > 20 µg/mL
EC50 (MDA-MB-435; Homo sapiens, MDA-MB-435, MDA-MB-435, unit inferred, read-out: apoptotic EC50): > 20 µg/mL
EC50 (PREC): > 20 µg/mL
Molecule: CC(C)=CCC/C(C)=C/C=C/C(C)=C/[C@]1(C)CCc2c(C)c(OCC(=O)O)c(C)c(C)c2O1 [Compound 18]
